The source of these data is paper PMC5395182, “Soaking suggests “alternative facts”: Only co-crystallization discloses major ligand-induced interface rearrangements of a homodimeric tRNA-binding protein indicating a novel mode-of-inhibition” (PLoS ONE, 2017).

“Also recorded” adds a separate entry of the source.

For series [1], the target named is T1, Z. mobilis TGT (Zymomonas mobilis subsp. mobilis, UniProt P28720).
T1 construct: Strep-tag II (N, cleaved yes); made in house; host or cells: Escherichia coli
The experiment in a line: Isothermal titration calorimetry (ITC) of ligand binding to TGT. As to conditions: for thermodynamic binding signature in words / Kd / ΔG^0: ITC; for Kd: 298 K, direct titration; for ΔG^0: calculated at 298.15 K; for ΔH^0bind: ionization corrected (intercept of ΔH^0obs vs buffer ΔH^0ion); for -TΔΔS^0 / ΔΔH^0: relative to 1 used as reference; for protons picked up during binding: slope of linear regression, average over inhibitors 2 and 5. The source says: To further analyze the binding properties of ligands studied in this contribution we decided to establish the thermodynamic analysis of a representative subset via isothermal titration calorimetry (ITC) (data for 1 had been determined previously). ITC enables the simultaneous determination of affinity (Kd) and stoichiometry (n) as well as enthalpic contribution (ΔH^0). The entropic (-TΔS^0) term to Gibbs free energy (ΔG^0 = ΔH^0—TΔS^0) results from ΔG^0–ΔH^0 difference. Due to insufficient availability of some compounds in high purity, quantity and sufficient solubility to perform proper ITC measurements, we decided to focus our investigation on 1, 2, 3 and 5.
We recently discovered that the binding of lin-benzoguanine derivatives is associated with protonation effects that are superimposed to the heat signal of ligand binding to TGT. […] Such protonation effects become transparent when ITC measurements are performed from at least three different buffers (see Materials and methods). The overlaid […] of the protonation step was determined as the intersection of the linear regression line obtained by plotting the observed enthalpies of the studied ligands (ΔH^0obs) against the heat of ionization of the corresponding buffers (ΔH^0ion) (Fig 9a). […] The examined inhibitors 2 and 5, on average receive 0.61 ± 0.04 protons per mole of the formed complex, which is in reasonable agreement with the results obtained for 1 (0.89) and similar compounds [29].
ITC measurements were performed using a Microcal ITC200 calorimeter system from GE Healthcare. Z. mobilis TGT was dissolved in the ITC buffer (50 mM HEPES/Tricin/TRIS pH 7.8, 200 mM NaCl, 0.037% (v/v) Tween 20 and 3% (v/v) DMSO) to a final concentration of 10–20 μM.
The inhibitors were first dissolved in 100% (v/v) DMSO and diluted with the buffer solution to a final DMSO concentration of 3% (v/v). The concentration of the inhibitor in the syringe was adjusted to 200–300 μM with the ITC buffer. The reference cell contained filtered demineralized water. […] The initial delay before the injections were started was adjusted to 180–300 s and the spacing between each injection to 150–180 s. The first injection contained 0.3–0.6 μL of the inhibitor solution followed by injections of 1.0–2.4 μL until a saturation occurred. A stirring speed of 750 rpm was chosen. Raw data were collected as released heat per time. The direct titrations were done in three different buffers (HEPES/Tricin/TRIS) to correct for the overlaid protonation effect as previously described.The measured ΔH^0obs were plotted on the ordinate and the ionization enthalpy of the corresponding buffer ΔH^0ion on the abscissa (Fig 9). The positive slope of the linear regression line indicates how many protons per mole of formed complex are entrapped.
For estimation of binding affinity (Kd), Z. mobilis TGT was incubated with 90–100% saturation of inhibitor 3. Protein saturation was calculated according Rühmann et al. (2015). Inhibitor 1 as strong titrant was used to displace inhibitor 3.
For analysis of the raw data, peak integration, model fitting and evaluation, the programs NITPIC [57] and SEDPHAT [58] were used. The initial injection peak was removed and the areas of the remaining peaks were integrated. The correction of the heats of dilution was conducted by subtraction of the final constant injection peak area integrals. The A+B ↔ AB hetero-association model (1:1 stoichiometry) was applied, whereby ΔH^0 and Kd were directly obtained. The ΔG^0 and -TΔS^0 values were calculated using a temperature of 298.15 K. For illustration of the integrated raw data and the ITC isotherms, the program GUSSI was used. Obtained thermodynamic data per buffer are reported as mean values averaged over at least three measurements.

The next series relates to T2, TGT homodimer.
T2 construct: Strep-tag II (N, cleaved yes); made in house; host or cells: Escherichia coli
Description: Native ESI-MS of TGT:ligand 1:10 mixtures (dimer destabilization). On the set-up: species or system Zymomonas mobilis. As to conditions: for Relative proportion of TGT monomers: 2.5 µM TGT and 25 µM inhibitor (1:10), 1 M NH4Ac pH 7.5, without ligand 3.3 ± 0.7 %; for effect on TGT dimer stability / monomer proportion, in words: compared to measurements in the absence of any ligand, TGT:ligand 1:10. The method, then:
In order to gain insights into the dimer disturbing potential seen in the crystal structures with the different ligands and to collect evidence for such a behavior also present in solution, native ESI-MS was performed. This technique enables to monitor the oligomerization state of TGT at equilibrium under non-denaturing conditions, in the absence or presence of saturating ligand concentrations. […] To ensure reliability, these comparative experiments were thus carried out adhering to strictly similar conditions (see Materials and methods).
Relative proportions of TGT-monomer signals extracted from individual 1:10 TGT:ligand mixtures (TGT monomer 2.5 μM) were quantified (S7 Fig, S1 Table) and normalized with respect to this value in the absence of any inhibitor.
Nano-ESI-MS analyses were performed as already described in the literature. Briefly, WT-TGT samples were exchanged twice against a 1 M ammonium acetate pH 7.5 buffer using microcentrifuge gel-filtration columns (Zeba 0.5 mL, Thermo Scientific). Next, protein concentration was determined spectrophotometrically at 280 nm (Nano-Drop 2000 spectrophotometer, Thermo Scientific).
Native MS experiments were carried out on a hybrid Q-TOF mass spectrometer (Synapt G2 HDMS, Waters) equipped with an automated chip-based nanoESI source (Triversa Nanomate, Advion Biosciences) operating in the positive ion mode. External calibrations were generated from the multiple charged ions produced by a 2 μM horse heart myoglobin solution diluted in a 1:1 (v/v) water: acetonitrile mixture acidified with 1% (v/v) formic acid (denaturing MS) and singly charged cesium iodide clusters diluted to 2 g∙L^-1 in a 1:1 (v/v) water: isopropanol solution (native MS).
Titration experiments in native conditions (1 M NH4Ac pH 7.5) were next triggered by mixing 2.5 μM TGT monomers with 25 μM of each ligand separately (ratio 1:10). The final DMSO concentration of each mixture never exceeded 0.25% (v/v). Non-covalent TGT dimers and TGT-ligand complexes were preserved in the gas phase according fine-tuned instrumental parameters, improving ion desolvation and transmission while maintaining intact structures (Vc = 80V, Pi = 6 mbar).
Relative quantification of TGT monomers was performed from charge states peak intensities of both monomeric (10 to 14+) and dimeric complexes (15 to 20+), using MassLynx 4.1 (Waters). TGT dimer disruption was determined for each ligand through their destabilization factor (Fig 8) which corresponds to their associated ratio of TGT monomers normalized from the apo-condition (S7 Fig; S1 Table). Standard deviations are calculated here from analytical triplicates. For the sake of reliability and comparability, all these experiments were performed within the same day, from identical experimental and instrumental conditions using the same buffer exchanged TGT batch (frozen and thawed only once).

Series [2] deals with T1, Z. mobilis TGT. The conditions noted are these: cited from earlier work; for Ki / affinity as described in words: radio-labeled assay, determined previously.
Series [3] is described as follows: Ligand dilution in native MS buffer (precipitation). Format: physicochemical. The conditions noted are these: 1 M NH4Ac pH 7.5.
The mark [4] stands for this setting: HEPES buffer, Gibbs-Helmholtz equation.
Setting [5] is: TRIS buffer, Gibbs-Helmholtz equation.
Where [6] appears, read: Tricin buffer, Gibbs-Helmholtz equation.

One may read the Kd as the free concentration of one partner at which half of the binding sites on the other are occupied at equilibrium, for simple one-to-one binding. By Ki is commonly meant the equilibrium dissociation constant of an inhibitor or competing ligand from its target.

T1 sequence (P28720 whole entry): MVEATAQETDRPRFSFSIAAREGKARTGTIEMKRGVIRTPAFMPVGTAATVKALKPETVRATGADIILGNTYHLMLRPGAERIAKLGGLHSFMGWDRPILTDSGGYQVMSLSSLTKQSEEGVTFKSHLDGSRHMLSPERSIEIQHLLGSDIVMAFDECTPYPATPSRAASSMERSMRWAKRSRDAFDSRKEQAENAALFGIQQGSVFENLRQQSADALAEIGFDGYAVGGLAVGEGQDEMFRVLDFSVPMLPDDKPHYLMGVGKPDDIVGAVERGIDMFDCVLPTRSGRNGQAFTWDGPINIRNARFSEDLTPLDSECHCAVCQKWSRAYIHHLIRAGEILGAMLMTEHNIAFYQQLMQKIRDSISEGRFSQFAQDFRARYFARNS

Take `CNc1nc2c(CC[C@H]3O[C@@H](OC)[C@H](O)[C@@H]3O)c3nc(N)[nH]c(=O)c3cc2[nH]1` [Inhibitor 2]: the “ΔH^0obs” value on Z. mobilis TGT [1] (HEPES buffer) is -9.61 ± 0.526 kcal/mol. For the same molecule, the “-TΔS^0” value at Z. mobilis TGT [1] (setting [4]) was determined as 0.574 ± 0.502 kcal/mol. Moreover, at Z. mobilis TGT [1], the “thermodynamic binding signature in words” value was “more enthalpically favored binder”, the Kd is 275 ± 49 nM, the “ΔG^0” value is -9.06 ± 0.096 kcal/mol and the “ΔH^0bind” value was -12.9 kcal/mol. The “protons picked up during binding” value on Z. mobilis TGT [1] was 0.61 ± 0.04 protons per mole of the formed complex. Moreover, on Z. mobilis TGT [1] (TRIS buffer), the “ΔH^0obs” value was -5.62 ± 0.478 kcal/mol. Also, the “-TΔS^0” value at Z. mobilis TGT [1] (setting [5]) is -3.37 ± 0.382 kcal/mol. For the same molecule, the “ΔH^0obs” value at Z. mobilis TGT [1] (Tricin buffer) was -8.51 ± 0.765 kcal/mol. Moreover, the “-TΔS^0” value on Z. mobilis TGT [1] (setting [6]) is -0.645 ± 0.645 kcal/mol. For the same molecule, at Z. mobilis TGT [1] (ionization corrected), the “-TΔS^0” value was found to be 3.8 kcal/mol, the “-TΔΔS^0” value is -8.63 kcal/mol and the “ΔΔH^0” value came out at 9.49 kcal/mol. For the same molecule, in the series with TGT homodimer, the “Relative proportion of TGT monomers” value is listed as 5.3% and the “effect on TGT dimer stability / monomer proportion, in words” value is “No effect on dimer stability”. In addition, at Z. mobilis TGT [2], the Ki was 217 ± 81 nM and the “Ki / affinity as described in words” value is recorded as “three-digit nanomolar”.

For the molecule `CNc1nc2c(CC[C@H]3O[C@@H](OC)[C@H](O)[C@@H]3OC)c3nc(N)[nH]c(=O)c3cc2[nH]1` [Inhibitor 3], the “heat signal in ITC, direct titration of ligand to TGT” value at Z. mobilis TGT [1] (HEPES, Tricin, TRIS buffers, also up to 308 K in HEPES) was “no heat effects at all could be detected; also recorded: no detectable heat signal”. In addition, the “thermodynamic binding signature in words” value at Z. mobilis TGT [1] is recorded as “overwhelmingly entropy-driven; also recorded: pure entropically-driven binding signature”. Further, on Z. mobilis TGT [1] (TGT 100% saturated with 3, 1 as titrant, HEPES), the “heat signal in ITC displacement titration” value is recorded as “again no heat signal was recorded”. Further, the “binding constant from ITC displacement experiments, in words” value at Z. mobilis TGT [1] (TGT saturated about 90% with 3, 1 as titrant) is “falls close to that of 1”. Also, in the series on TGT homodimer, the “Relative proportion of TGT monomers” value turned out to be 9.6% and the “effect on TGT dimer stability / monomer proportion, in words” value is listed as “slightly increased proportion of TGT monomer”. For the same molecule, the “Ki / affinity as described in words” value on Z. mobilis TGT [2] is given as “submicromolar; also recorded: three-digit nanomolar”.

On to `CNc1nc2c(CCNCC3CCCC3)c3nc(N)[nH]c(=O)c3cc2[nH]1` [Inhibitor 5], for which the “ΔH^0obs” value on Z. mobilis TGT [1] (HEPES buffer) was -12 ± 0.813 kcal/mol. Besides, the “-TΔS^0” value on Z. mobilis TGT [1] (setting [4]) was found to be 1.48 ± 0.884 kcal/mol. In addition, at Z. mobilis TGT [1], the affinity, expressed as Kd, was 32 ± 9 nM; the “ΔG^0” value was -10.3 ± 0.19 kcal/mol; the “ΔH^0bind” value was -14.8 kcal/mol; the “protons picked up during binding” value is given as 0.61 ± 0.04 protons per mole of the formed complex. Besides, the “ΔH^0obs” value on Z. mobilis TGT [1] (TRIS buffer) is -8.2 ± 0.526 kcal/mol. Moreover, the “-TΔS^0” value at Z. mobilis TGT [1] (setting [5]) is -1.98 ± 0.335 kcal/mol. Further, the “ΔH^0obs” value at Z. mobilis TGT [1] (Tricin buffer) was -10.3 ± 0.98 kcal/mol. Moreover, the “-TΔS^0” value on Z. mobilis TGT [1] (setting [6]) stood at 0.12 ± 0.789 kcal/mol. Also, on Z. mobilis TGT [1] (ionization corrected), the “-TΔS^0” value was determined as 4.49 kcal/mol, the “-TΔΔS^0” value was -7.93 kcal/mol and the “ΔΔH^0” value amounted to 7.58 kcal/mol. Also, in the series with TGT homodimer, the “Relative proportion of TGT monomers” value is on record as 4.2% and the “effect on TGT dimer stability / monomer proportion, in words” value is recorded as “No effect on dimer stability”. Besides, at Z. mobilis TGT [2], the Ki was 2 ± 1 nM and the “Ki / affinity as described in words” value is recorded as “single-digit nanomolar”.

Turning to `CNc1nc2c(CCNCC3CCCCC3)c3nc(N)[nH]c(=O)c3cc2[nH]1` [Inhibitor 6], in the series with TGT homodimer, the “Relative proportion of TGT monomers” value was found to be 2.5% and the “effect on TGT dimer stability / monomer proportion, in words” value is “did not exert any influence on dimer stability”. Moreover, the “precipitation upon ligand dilution in buffer” value in series [3] is listed as “partial precipitation; also recorded: apparent precipitation”. For the same molecule, the “Ki / affinity as described in words” value at Z. mobilis TGT [2] was “single-digit nanomolar”.

`COc1ccc(CCc2c3nc[nH]c3cc3c(=O)[nH]c(N)nc23)cc1` [Inhibitor 7]: in the series with TGT homodimer, the “Relative proportion of TGT monomers” value is 9.4% and the “effect on TGT dimer stability / monomer proportion, in words” value was “slightly increased proportion of TGT monomer”.

For the molecule `Cc1ccc(CCc2c3nc[nH]c3cc3c(=O)[nH]c(N)nc23)cc1` [Inhibitor 8], in the series on TGT homodimer, the “Relative proportion of TGT monomers” value was determined as 7.1% and the “effect on TGT dimer stability / monomer proportion, in words” value is “slightly increased proportion of TGT monomer”.

Take `Nc1nc2c(CCc3ccccc3)c3nc[nH]c3cc2c(=O)[nH]1` [Inhibitor 9]: in the series on TGT homodimer, the “Relative proportion of TGT monomers” value turned out to be 12.6% and the “effect on TGT dimer stability / monomer proportion, in words” value is “slightly increased proportion of TGT monomer; also recorded: most significant increase of normalized monomer proportion”.

Regarding `Nc1nc2cc3nc[nH]c3cc2c(=O)[nH]1` [lin-benzoguanine, reference compound], the Ki at Z. mobilis TGT [2] was 4100 ± 1000 nM.
